This is an account of results in paper PMC3138527 (2011).

Broadly, the Km is the concentration of substrate that gives half-maximal velocity. The term Kd denotes the equilibrium constant for the complex coming apart. Low readings indicate tighter binding, high ones weaker binding.

Common to all, as to type: biochemical
The target of experiment [1] is T1, triosephosphate isomerase (Tbb TIM) (Trypanosoma brucei, UniProt P04789). As to the kind of experiment: coupled enzyme assay.
In experiment [2] the target is T1, triosephosphate isomerase (Tbb TIM). The experiment can be described thus: 1H NMR turnover in D2O.
Experiment [3] has the same target. The experiment can be described thus: activation of the TIM-catalyzed reaction of [[…]-13C]-GA in D2O followed by 1H NMR.

T1 sequence (P04789 whole entry): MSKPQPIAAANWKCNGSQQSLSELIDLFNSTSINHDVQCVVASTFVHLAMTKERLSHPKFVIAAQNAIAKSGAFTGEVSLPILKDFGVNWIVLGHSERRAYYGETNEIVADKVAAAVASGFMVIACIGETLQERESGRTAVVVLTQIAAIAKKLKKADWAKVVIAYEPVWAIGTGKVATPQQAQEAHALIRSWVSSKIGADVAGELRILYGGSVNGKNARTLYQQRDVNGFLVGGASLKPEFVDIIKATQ

As to `O=C[C@H](O)COP(=O)(O)O` [GAP, (R)-glyceraldehyde 3-phosphate], in experiment [1], the Km came to 250 µM.

Turning to `O=CCO` [[1-^13C]-GA, glycolaldehyde], the “1H NMR turnover in D2O; kcat/Km with saturating phosphite” value in experiment [2] turned out to be 64 ± 6 M⁻¹ s⁻¹. In turn, `O=[PH](O)O` [phosphite dianion] yielded a Kd in experiment [3] of 19 ± 3 mM.
